Laboratory results as given in US8551984B2, “Aminopyrimidines as SYK inhibitors” (Merck Sharp & Dohme Corp., priority 2009, dated 2013).

Target: recombinant human SYK (GST-hSYK fusion protein) (Homo sapiens, UniProt P43405)
Assay: biochemical
[1] = rhSYK Activity (IC50), recombinant human GST-SYK 5 pM, ATP 25 μM, biotinylated substrate peptide 250 nM, HTRF, 10-dose titration

Excerpt: Homogeneous Time-Resolved Fluorescence (HTRF) Assay for the Recombinant Human SYK Enzyme:

Compound Cc1cc(Nc2nccc(C(F)(F)F)n2)cc(-c2cnc(C3=CCSCC3)s2)c1 [Example 133, N-{3-[2-(3,6-dihydro-2H-thiopyran-4-yl)-1,3-thiazol-5-yl]-5-methylphenyl}-4-(trifluoromethyl)pyrimidin-2-amine] has an IC50 [1] of under 100 nM.
Cc1cc(Nc2nccc(C(C)C)n2)cc(-c2cnc(C3(O)CCCN(C(=O)C(O)CO)CC3)s2)c1 (stereo not shown) [Example 54D-8] showed an IC50 (rhSYK Activity, Table 54D) of under 100 nM.
Cc1cc(Nc2nccc(C(F)(F)F)n2)cc(-c2cnc(C3(O)CCN(C(=O)c4c[nH]cn4)CC3)s2)c1 [Example 54A-29] showed an IC50 (RHSYK Activity, Table 54A) of under 100 nM.
Cc1cc(Nc2nccc(C(F)(F)F)n2)cc(-c2cnc(C3(O)CCCN(C(=O)CCO)CC3)s2)c1 (stereo not shown) [Example 54D-13] showed an IC50 (rhSYK Activity, Table 54D) of under 100 nM.
For Cc1cc(Nc2nccc(O[C@@H]3CCOC3)n2)cc(-c2cnc(C3(O)CCC3)s2)c1 [Example 94A-8], the IC50 [1] was under 100 nM.
COC(=O)[C@H]1CC[C@](O)(c2ncc(-c3cc(C)cc(Nc4nccc(OC(C)C)n4)c3)s2)CC1(C)C [Example 101-4] gave an IC50 [1] of under 100 nM.
For Cc1cc(Nc2nccc(C(F)(F)F)n2)cc(-c2cnc(C(C)(O)c3ccc(C(=O)O)s3)s2)c1 (single isomer, unassigned) [Example 33D-21], the IC50 (rhSYK Activity, Table 33D) was under 100 nM.
For Cc1cc(Nc2nccc(C(F)(F)F)n2)cc(-c2cnc(C3(O)C(C)CC(C(=O)O)CC3C)s2)c1 (stereo not shown) [Example 113B-30], the IC50 (rhSYK Activity, Table 113B) was under 100 nM.
With Cc1cc(Nc2nccc(C(F)(F)F)n2)cc(-c2cnc(C(O)C(C)(C)N3CCC(C(=O)O)CC3)s2)c1 (stereo not shown) [Example 33D-23] the IC50 (rhSYK Activity, Table 33D) was under 100 nM.
Cc1cc(Nc2nccc(C(F)(F)F)n2)cc(-c2cnc(C(=O)NCc3ncc[nH]3)s2)c1 [Example 87A-25] was tested, and the IC50 [1] was under 100 nM.
COCCOc1ccnc(Nc2cc(C)cc(-c3cnc(C4(O)CCC(C(=O)O)CC4)s3)c2)n1 (stereo not shown) [Example 113A-1] was tested, and the IC50 (rhSYK Activity, Table 113A) was under 100 nM.
Compound FC(F)(F)c1ccnc(Nc2cccc(-c3cnc(C4CCOC4)s3)c2)n1 (stereo not shown) [Example 21-5] has an IC50 (rhSYK Activity, Table 21) of under 100 nM.
For Cc1cc(Nc2nccc(OCc3ccon3)n2)cc(-c2cnc(C3(O)CCC3)s2)c1 [Example 108A-9], the IC50 (rhSYK Activity, Table 108A) was under 100 nM.
In the case of Cc1cc(Nc2nccc(C(F)(F)F)n2)cc(-c2cnc(CNC3CCS(=O)(=O)C3)s2)c1 (stereo not shown) [Example 88A-5], the IC50 [1] is reported as under 100 nM.
With COCCOc1ccnc(Nc2cc(C)cc(-c3cnc(C4(O)CCC(C(=O)O)C(C)C4)s3)c2)n1 (stereo not shown) [Example 113A-38] the IC50 (rhSYK Activity, Table 113A) was under 100 nM.
Cc1cc(Nc2nccc(OC(C)C)n2)cc(-c2cnc(C3(O)CCC(C(=O)O)C(C)C3)s2)c1 (stereo not shown) [116A-21] showed an IC50 (rhSYK Activity, Table 116A) of under 100 nM.
Work on Cc1cc(Nc2nccc(C(F)(F)F)n2)cc(-c2cnc(CCC(=O)N(C)C)s2)c1 [Example 79-4] yielded an IC50 [1] of under 100 nM.
In the case of Cc1cc(Nc2nccc(C(F)(F)F)n2)cc(-c2cnc(C(=O)N3CCN(C)C(=O)C3C)s2)c1 (stereo not shown) [Example 87B-5], the IC50 [1] is reported as 100 to 1000 nM.
Cc1cc(Nc2nccc(C(F)(F)F)n2)cc(-c2cnc(CN(CCO)CCO)s2)c1 [Example 88A-13] gave an IC50 [1] of under 100 nM.
In the case of Cc1cc(Nc2nccc(C(F)(F)F)n2)cc(-c2cnc(C3(O)CCC(NC(=O)CC(N)=O)CC3)s2)c1 (stereo not shown) [Example 54E-3], the IC50 (rhSYK Activity, Table 54E) is reported as under 100 nM.
Work on Cc1cc(Nc2nccc(C(F)(F)F)n2)cc(-c2cnc(C(C)(O)COC(C)(C)C(=O)O)s2)c1 (stereo not shown) [Example 33D-7] yielded an IC50 (rhSYK Activity, Table 33D) of under 100 nM.
Compound OC1(c2ncc(-c3cccc(Nc4nccc(C(F)(F)F)n4)c3)s2)CCNC1 (stereo not shown) [54C-1] has an IC50 (rhSYK Activity, Table 54C) of under 100 nM.
O=C(O)[C@H]1CC[C@](O)(c2ncc(-c3cccc(Nc4nccc(C(F)(F)F)n4)c3)s2)CC1 [Example 33A-24] showed an IC50 (rhSYK Activity, Table 33-A) of under 100 nM.
For Cc1cc(Nc2nccc(C(F)(F)F)n2)cc(-c2cnc(CCC(C)(C)O)s2)c1 [Example 80, 2-methyl-4-[5-(3-methyl-5-{[4-(trifluoromethyl)pyrimidin-2-yl]amino}phenyl)-1,3-thiazol-2-yl]butan-2-ol], the IC50 [1] was under 100 nM.
Work on Cc1cc(Nc2nccc(C(F)(F)F)n2)cc(-c2cnc(C(=O)N3CCN(C)C(=O)C3)s2)c1 [Example 87B-4] yielded an IC50 [1] of under 100 nM.
COC(=O)C1CCC(N2CCC(O)(c3ncc(-c4cc(C)cc(Nc5nccc(C(F)(F)F)n5)c4)s3)C2)C1 (stereo not shown) [54B-34] gave an IC50 (rhSYK Activity, Table 54B) of under 100 nM.
Work on Cc1cc(Nc2nccc(OC3CCC(O)CC3)n2)cc(-c2cnc(C(C)(O)C(F)(F)F)s2)c1 (mixture of isomers) [Example 96, 4-{[2-({3-methyl-5-[2-(1,1,1-trifluoro-2-hydroxypropan-2-yl)-1,3-thiazol-5-yl]phenyl}amino)-pyrimidin-4-yl]oxy}cyclohexanol] yielded an IC50 [1] of under 100 nM.
Cc1cc(Nc2nccc(C(F)(F)F)n2)cc(-c2cnc(C3(O)CCC(=O)NCC3O)s2)c1 (single isomer, unassigned) [161(C), [cis]5,6-dihydroxy-5-[5-(3-methyl-5-{[4-(trifluoromethyl)pyrimidin-2-yl]amino}phenyl)-1,3-thiazol-2-yl]azepan-2-one] was tested, and the IC50 [1] was under 100 nM.
COc1ccnc(Nc2cc(C)cc(-c3cnc(C4(O)CCN(C(=O)NC(=O)N(C)C)CC4)s3)c2)n1 [Example 54A-17] gave an IC50 (RHSYK Activity, Table 54A) of under 100 nM.
Work on Cc1cc(Nc2nccc(C(F)(F)F)n2)cc(-c2cnc([C@]3(O)CC[C@@H](NC(=O)Cc4c[nH]cn4)CC3)s2)c1 [Example 54E-10] yielded an IC50 (rhSYK Activity, Table 54E) of under 100 nM.
Cc1cc(Nc2nccc(C)n2)cc(-c2cnc(C3(O)CCC4(CC3)OCCO4)s2)c1 [Example 33C-17] gave an IC50 (rhSYK Activity, Table 33C) of under 100 nM.
In the case of Cc1cc(Nc2nccc(C(F)(F)F)n2)cc(-c2cnc(C3(O)CCN(C(=O)[C@@H]4CCCC(=O)N4)CC3)s2)c1 [Example 54A-52], the IC50 (RHSYK Activity, Table 54A) is reported as under 100 nM.
For Cc1cc(Nc2nccc(C(F)(F)F)n2)cc(-c2cnc(C(=O)NCCCN(CCO)CCO)s2)c1 [Example 87A-36], the IC50 [1] was under 100 nM.
Compound Cc1cc(Nc2nccc(C(F)(F)F)n2)cc(-c2cnc(C(C)(O)c3ccc(C(=O)O)s3)s2)c1 (stereo not shown) [Example 33D-20] has an IC50 (rhSYK Activity, Table 33D) of under 100 nM.
With COC(=O)C1CCC(O)(c2ncc(-c3cc(C)cc(Nc4ncc(F)c(OC)n4)c3)s2)CC1(C)C (stereo not shown) [116A-35] the IC50 (rhSYK Activity, Table 116A) was 100 to 1000 nM.
Cc1cc(Nc2nccc(C(F)(F)F)n2)cc(-c2cnc(C3(O)CCN(S(=O)(=O)NC(=O)OC(C)(C)C)C3)s2)c1 (stereo not shown) [54B-9] was tested, and the IC50 (rhSYK Activity, Table 54B) was under 100 nM.
Cc1cc(Nc2nccc(C(F)(F)F)n2)cc(-c2cnc(C3(O)CCN(C(=O)C(O)C(F)(F)F)CC3)s2)c1 (racemic) [Example 54A-60] gave an IC50 (RHSYK Activity, Table 54A) of under 100 nM.
Work on COC(=O)C1CCC(O)(c2ncc(-c3cc(COC(C)=O)cc(Nc4nccc(C(F)(F)F)n4)c3)s2)CC1(C)C (stereo not shown) [Example 33A-49] yielded an IC50 (rhSYK Activity, Table 33-A) of under 100 nM.
Compound Cc1cc(Nc2nccc(C(F)(F)F)n2)cc(-c2cnc(CNCCC(N)=O)s2)c1 [Example 88A-23] has an IC50 [1] of under 100 nM.
Work on Cc1cc(Nc2nccc(C(F)(F)F)n2)cc(-c2cnc(C3(O)CCCN(C(=O)CC4CCOCC4)CC3)s2)c1 (stereo not shown) [Example 54D-96] yielded an IC50 (rhSYK Activity, Table 54D) of under 100 nM.
With Cc1cc(Nc2nccc(OCc3ccncc3)n2)cc(-c2cnc(C3(O)CCC3)s2)c1 [Example 94A-1] the IC50 [1] was under 100 nM.
Compound Cc1cc(Nc2nccc(C(F)(F)F)n2)cc(-c2cnc(CNC(C)(CO)CO)s2)c1 [Example 88A-14] has an IC50 [1] of under 100 nM.
CC(=O)N1CCC(Oc2ccnc(Nc3cc(N)cc(-c4cnc(C5(O)CCC5)s4)c3)n2)CC1 [Example 109-6] was tested, and the IC50 (rhSYK Activity, Table 109) was under 100 nM.
With Cc1cc(Nc2nccc(OC(CN)c3ccncn3)n2)cc(-c2cnc(C3(O)CCC3)s2)c1 (stereo not shown) [Example 108A-6] the IC50 (rhSYK Activity, Table 108A) was under 100 nM.
Compound OC(c1ncc(-c2cc(NCC(F)(F)F)cc(Nc3nccc(C(F)(F)F)n3)c2)s1)C(F)F (stereo not shown) [Example 27-1] has an IC50 (rhSYK Activity, Table 27) of under 100 nM.
Compound Cc1cc(Nc2nccc(C(F)(F)F)n2)cc(-c2cnc(C3(O)CCCN(C(=O)CCC(N)=O)CC3)s2)c1 (single isomer, unassigned) [Example 54D-41] has an IC50 (rhSYK Activity, Table 54D) of under 100 nM.
With COC(=O)C1CCC(O)(c2ncc(-c3cc(C)cc(Nc4nccc(C5CC5)n4)c3)s2)CC1(C)C (stereo not shown) [Example 113A-56] the IC50 (rhSYK Activity, Table 113A) was under 100 nM.
With Cc1cc(Nc2nccc(C(F)(F)F)n2)cc(-c2cnc(C(=O)NC(CO)(CO)CO)s2)c1 [Example 87A-34] the IC50 [1] was under 100 nM.
In the case of CN1CCOC(c2ncc(-c3cccc(Nc4nccc(C(F)(F)F)n4)c3)s2)C1 (stereo not shown) [Example 21-2], the IC50 (rhSYK Activity, Table 21) is reported as under 100 nM.
With Cc1cc(Nc2nccc(C(F)(F)F)n2)cc(-c2cnc(-c3cnn(CCCO)c3)s2)c1 [Example 115-3] the IC50 (rhSYK Activity, Table 115) was under 100 nM.
Compound Cc1cc(Nc2nccc(C(F)(F)F)n2)cc(-c2cnc(C3(O)CCCN(C(=O)Cn4ccnn4)CC3)s2)c1 (single isomer, unassigned) [Example 54D-52] has an IC50 (rhSYK Activity, Table 54D) of under 100 nM.
O=C(O)[C@H]1CC[C@](O)(c2ncc(-c3cc(Cl)cc(Nc4nccc(C(F)(F)F)n4)c3)s2)CC1 [Example 113A-3] showed an IC50 (rhSYK Activity, Table 113A) of under 100 nM.
For Cc1cc(Nc2nccc(C)n2)cc(-c2cnc(C3(O)CCC(C(=O)O)C(C(C)C)C3)s2)c1 (stereo not shown) [Example 33B-35], the IC50 (rhSYK Activity, Table 33B) was under 100 nM.
With Cc1cc(Nc2nccc(C(F)(F)F)n2)cc(-c2cnc(C3(F)CCSCC3)s2)c1 [Example 132, N-{3-[2-(4-fluorotetrahydro-2H-thiopyran-4-yl)-1,3-thiazol-5-yl]-5-methylphenyl}-4-(trifluoromethyl)pyrimidin-2-amine] the IC50 [1] was 100 to 1000 nM.
Cc1cc(Nc2nccc(C(C)C)n2)cc(-c2cnc(C3(O)CCCN(C(=O)CC(N)=O)CC3)s2)c1 (stereo not shown) [Example 54D-6] was tested, and the IC50 (rhSYK Activity, Table 54D) was under 100 nM.
Cc1cc(Nc2nccc(OCC3Cc4ccccc4N3)n2)cc(-c2cnc(C3(O)CCC3)s2)c1 (stereo not shown) [Example 108A-15] was tested, and the IC50 (rhSYK Activity, Table 108A) was 100 to 1000 nM.
In the case of Cc1cc(Nc2nccc(C(F)(F)F)n2)cc(-c2cnc(C3(O)CCC(NC(=O)C4CNC(=O)N4)CC3)s2)c1 (stereo not shown) [Example 54E-15], the IC50 (rhSYK Activity, Table 54E) is reported as under 100 nM.
COC(=O)C1CCC(O)(c2ncc(-c3cc(CO)cc(Nc4nccc(C(F)(F)F)n4)c3)s2)CC1(C)C (single isomer, unassigned) [Example 33A-50] gave an IC50 (rhSYK Activity, Table 33-A) of under 100 nM.
Work on Cc1cc(Nc2ncc(Cl)c(C(F)(F)F)n2)cc(-c2cnc(C3(NC(=O)NC(N)=O)CCNC(=O)CC3)s2)c1 (stereo not shown) [65-7] yielded an IC50 (rhSYK Activity, Table 65) of under 100 nM.
Work on Cc1cc(Nc2nccc(C(F)(F)F)n2)cc(-c2cnc(CN(C)CCO)s2)c1 [Example 88A-12] yielded an IC50 [1] of under 100 nM.
Cc1cc(Nc2nccc(OCCCCOCc3ccccc3)n2)cc(-c2cnc(C3(O)CCC3)s2)c1 [Example 94A-11] showed an IC50 [1] of 100 to 1000 nM.
